{"source": "PubChem BioAssay AID330", "about": "(DTP/NCI, 2004)", "test_system": "P388 leukemia ip, CD2F1 mice, survival T/C", "experiment": "NCI In Vivo Anticancer Drug Screen. Data for tumor model P388 Leukemia (intraperitoneal) in CD2F1 (CDF1) mice", "conditions": "endpoint: median survival time, higher = longer survival", "in_short": "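Mice carrying the transplanted tumor received test compound or vehicle. Survival was recorded in each group, and the value is the treated-group measurement divided by that of the vehicle-treated control group.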", "key": {"[1]": {"conditions": "dose: 50.0 mg/kg/injection, schedule: Q01DX009 (ip), vehicle: saline with Tween-80"}, "[2]": {"conditions": "dose: 100.0 mg/kg/injection, schedule: Q01DX009 (ip), vehicle: saline with Tween-80"}, "[3]": {"conditions": "dose: 50.0 mg/kg/injection, schedule: Q01DX009 (ip), vehicle: saline"}, "[4]": {"conditions": "dose: 25.0 mg/kg/injection, schedule: Q01DX009 (ip), vehicle: saline with Tween-80"}, "[5]": {"conditions": "dose: 50.0 mg/kg/injection, schedule: Q01DX005 (ip), vehicle: Klucel (hydroxypropylcellulose) (HPC)"}, "[6]": {"conditions": "dose: 100.0 mg/kg/injection, schedule: Q01DX005 (ip), vehicle: Klucel (hydroxypropylcellulose) (HPC)"}, "[7]": {"conditions": "dose: 200.0 mg/kg/injection, schedule: Q01DX005 (ip), vehicle: Klucel (hydroxypropylcellulose) (HPC)"}}, "note": "Several values for one entry are separate records, joined by “and”; a condition that tells them apart may be missing. Equal values may be shown once. Inconclusive results and toxic doses are left out."}
{"molecule": "COc1c(I)c2c(c(OC)c1OC)-c1ccc(OC)c(=O)cc1C(NC(C)=O)CC2", "note": "(stereo not drawn)", "values": [{"measurement": "T/C", "setting": "dose: 6.25 mg/kg/injection, schedule: Q01DX009 (ip), vehicle: Klucel (hydroxypropylcellulose) (HPC)", "value": "178 % of control"}, {"measurement": "T/C", "setting": "dose: 12.5 mg/kg/injection, schedule: Q01DX009 (ip), vehicle: Klucel (hydroxypropylcellulose) (HPC)", "value": "167 % of control"}]}
{"molecule": "CCCCC1SC2=NCCCN2C1(O)c1ccc(Cl)cc1", "note": "(stereo not drawn)", "values": [{"measurement": "T/C", "setting": "[1]", "value": "105 % of control"}, {"measurement": "T/C", "setting": "[2]", "value": "106 % of control"}]}
{"molecule": "O=S1(=O)C2C=CC1CCCC2", "values": [{"measurement": "T/C", "setting": "dose: 12.5 mg/kg/injection, schedule: Q01DX009 (ip), vehicle: saline", "value": "95 % of control"}, {"measurement": "T/C", "setting": "dose: 25.0 mg/kg/injection, schedule: Q01DX009 (ip), vehicle: saline", "value": "90 % of control"}, {"measurement": "T/C", "setting": "[3]", "value": "92 % of control and 96 % of control"}]}
{"molecule": "NC(=S)N/N=C/c1ccc(OC(=O)COc2ccccc2)cn1", "values": [{"measurement": "T/C", "setting": "[4]", "value": "171 % of control"}, {"measurement": "T/C", "setting": "[1]", "value": "205 % of control"}, {"measurement": "T/C", "setting": "[2]", "value": "205 % of control"}]}
{"molecule": "NCCCCC(N)C(=O)O", "note": "(stereo not drawn)", "values": [{"measurement": "T/C", "setting": "[3]", "value": "104 % of control"}, {"measurement": "T/C", "setting": "dose: 100.0 mg/kg/injection, schedule: Q01DX009 (ip), vehicle: saline", "value": "100 % of control"}, {"measurement": "T/C", "setting": "dose: 200.0 mg/kg/injection, schedule: Q01DX009 (ip), vehicle: saline", "value": "94 % of control"}]}
{"molecule": "O=P(=O)OP(=O)=O.[O]=[W](=[O])=[O]", "values": [{"measurement": "T/C", "setting": "[4]", "value": "100 % of control"}, {"measurement": "T/C", "setting": "[1]", "value": "100 % of control"}, {"measurement": "T/C", "setting": "[2]", "value": "95 % of control"}]}
{"molecule": "O=NNc1cncc2ccccc12", "values": [{"measurement": "T/C", "setting": "dose: 1.56 mg/kg/injection, schedule: Q01DX009 (ip), vehicle: water", "value": "100 % of control"}, {"measurement": "T/C", "setting": "dose: 3.12 mg/kg/injection, schedule: Q01DX009 (ip), vehicle: water", "value": "94 % of control"}, {"measurement": "T/C", "setting": "dose: 6.0 mg/kg/injection, schedule: Q01DX008 (ip), vehicle: water", "value": "102 % of control"}, {"measurement": "T/C", "setting": "dose: 6.25 mg/kg/injection, schedule: Q01DX009 (ip), vehicle: water", "value": "94 % of control"}, {"measurement": "T/C", "setting": "dose: 12.5 mg/kg/injection, schedule: Q01DX008 (ip), vehicle: water", "value": "113 % of control"}, {"measurement": "T/C", "setting": "dose: 12.5 mg/kg/injection, schedule: Q01DX009 (ip), vehicle: water", "value": "104 % of control"}, {"measurement": "T/C", "setting": "dose: 25.0 mg/kg/injection, schedule: Q01DX008 (ip), vehicle: water", "value": "111 % of control"}, {"measurement": "T/C", "setting": "dose: 25.0 mg/kg/injection, schedule: Q01DX009 (ip), vehicle: water", "value": "115 % of control"}, {"measurement": "T/C", "setting": "dose: 50.0 mg/kg/injection, schedule: Q01DX008 (ip), vehicle: water", "value": "116 % of control"}]}
{"molecule": "COC1=CCCC(C(C)=O)C1Sc1ccccc1", "note": "(stereo not drawn)", "values": [{"measurement": "T/C", "setting": "dose: 100.0 mg/kg/injection, schedule: Q01DX001 (ip), vehicle: saline", "value": "100 % of control"}, {"measurement": "T/C", "setting": "dose: 200.0 mg/kg/injection, schedule: Q01DX001 (ip), vehicle: saline", "value": "102 % of control"}, {"measurement": "T/C", "setting": "dose: 400.0 mg/kg/injection, schedule: Q01DX001 (ip), vehicle: saline", "value": "100 % of control"}]}
{"molecule": "COC=C=CC(C)(C)OC", "values": [{"measurement": "T/C", "setting": "dose: 25.0 mg/kg/injection, schedule: Q01DX005 (ip), vehicle: Klucel (hydroxypropylcellulose) (HPC)", "value": "102 % of control and 110 % of control"}, {"measurement": "T/C", "setting": "[5]", "value": "103 % of control and 91 % of control and 95 % of control"}, {"measurement": "T/C", "setting": "[6]", "value": "103 % of control and 112 % of control and 121 % of control"}, {"measurement": "T/C", "setting": "[7]", "value": "100 % of control and 103 % of control and 114 % of control"}]}
{"molecule": "O=C(O)CCc1nc(-c2ccccc2)ncc1C(=O)O", "values": [{"measurement": "T/C", "setting": "dose: 100.0 mg/kg/injection, schedule: Q04DX003 (ip), vehicle: saline with Tween-80", "value": "100 % of control"}, {"measurement": "T/C", "setting": "dose: 200.0 mg/kg/injection, schedule: Q04DX003 (ip), vehicle: saline with Tween-80", "value": "100 % of control"}, {"measurement": "T/C", "setting": "dose: 400.0 mg/kg/injection, schedule: Q04DX003 (ip), vehicle: saline with Tween-80", "value": "98 % of control"}]}
{"molecule": "CC(=O)c1ccc(Cl)c(N=Cc2cc(Br)ccc2O)c1", "values": [{"measurement": "T/C", "setting": "[5]", "value": "88 % of control"}, {"measurement": "T/C", "setting": "[6]", "value": "95 % of control"}, {"measurement": "T/C", "setting": "[7]", "value": "92 % of control"}]}
{"molecule": "CCN(CC)C1=CC(=O)OC1OC", "note": "(stereo not drawn)", "values": [{"measurement": "T/C", "setting": "dose: 60.0 mg/kg/injection, schedule: Q01DX005 (ip), vehicle: saline", "value": "95 % of control"}, {"measurement": "T/C", "setting": "dose: 120.0 mg/kg/injection, schedule: Q01DX005 (ip), vehicle: saline", "value": "94 % of control"}]}
{"molecule": "Cc1c(Cl)cccc1NC(=O)/C(Cl)=C1/Sc2ccccc2NC1=O", "values": [{"measurement": "T/C", "setting": "dose: 60.0 mg/kg/injection, schedule: Q01DX005 (ip), vehicle: saline with Tween-80", "value": "96 % of control"}, {"measurement": "T/C", "setting": "dose: 120.0 mg/kg/injection, schedule: Q01DX005 (ip), vehicle: saline with Tween-80", "value": "93 % of control"}, {"measurement": "T/C", "setting": "dose: 240.0 mg/kg/injection, schedule: Q01DX005 (ip), vehicle: saline with Tween-80", "value": "91 % of control"}]}
